# In patent US12180518B2, “RNA polymerase variants for co-transcriptional capping” (priority 2019, dated 2024):
# What was measured:
# Assay type in all cases: biochemical, bacteriophage T7
# [1] = target: T7 RNA polymerase variant G47A/D506W+C-terminal G (D506W), SEQ ID NO: 57 (Escherichia phage T7, UniProt P00573, D506W/G47A); assay: GAG/e6A/m6A cap analog incorporation in IVT reactions, LC-MS % capped RNA (D506W); conditions: 5 mM of each NTP
# Protocol: (§1) In vitro transcription reactions were performed using DNA template, one of three cap analogs (GAG cap, m6A cap, and e6A cap) at varying concentrations, and (1) a G47A+C-terminal G RNA polymerase variant (control polymerase variant; G47A+C-terminal G), (2) a G47A/D506W+C-terminal G RNA polymerase variant (D506W), (3) a G47A/S628W+C-terminal G RNA polymerase variant (S628W), (4) a G47A/D653W+C-terminal G RNA polymerase variant (D653W), and (5) a G47A/P657W+C-terminal G RNA polymerase variant (P657W). IVT reactions using the m6A and e6A cap analogs were incorporated using a DNA template that encodes for a 5′A followed by G. Following the IVT reactions, each experiment was subjected to LC-MS to determine the % capped RNA (i.e., percent of transcribed RNA comprising a cap).
# (§2) Conversely, even at 5 mM e6A, the control variant provided ˜40% of total RNA with incorporated e6A.
# (§3) Conversely, even at 5 mM m6A, the control variant provided less than 30% of total RNA with incorporated m6A.
# [2] = target: T7 RNA polymerase variant G47A/D653W+C-terminal G (D653W), SEQ ID NO: 59 (Escherichia phage T7, UniProt P00573, D653W/G47A); assay: GAG/e6A/m6A/GGAG cap analog incorporation in IVT reactions, LC-MS % capped RNA (D653W)
# Sequence of T7 RNA polymerase variant G47A/D653W+C-terminal G (D653W), SEQ ID NO: 59 (P00573 other isoform, or with tags, fused parts or gaps G47A/D653W): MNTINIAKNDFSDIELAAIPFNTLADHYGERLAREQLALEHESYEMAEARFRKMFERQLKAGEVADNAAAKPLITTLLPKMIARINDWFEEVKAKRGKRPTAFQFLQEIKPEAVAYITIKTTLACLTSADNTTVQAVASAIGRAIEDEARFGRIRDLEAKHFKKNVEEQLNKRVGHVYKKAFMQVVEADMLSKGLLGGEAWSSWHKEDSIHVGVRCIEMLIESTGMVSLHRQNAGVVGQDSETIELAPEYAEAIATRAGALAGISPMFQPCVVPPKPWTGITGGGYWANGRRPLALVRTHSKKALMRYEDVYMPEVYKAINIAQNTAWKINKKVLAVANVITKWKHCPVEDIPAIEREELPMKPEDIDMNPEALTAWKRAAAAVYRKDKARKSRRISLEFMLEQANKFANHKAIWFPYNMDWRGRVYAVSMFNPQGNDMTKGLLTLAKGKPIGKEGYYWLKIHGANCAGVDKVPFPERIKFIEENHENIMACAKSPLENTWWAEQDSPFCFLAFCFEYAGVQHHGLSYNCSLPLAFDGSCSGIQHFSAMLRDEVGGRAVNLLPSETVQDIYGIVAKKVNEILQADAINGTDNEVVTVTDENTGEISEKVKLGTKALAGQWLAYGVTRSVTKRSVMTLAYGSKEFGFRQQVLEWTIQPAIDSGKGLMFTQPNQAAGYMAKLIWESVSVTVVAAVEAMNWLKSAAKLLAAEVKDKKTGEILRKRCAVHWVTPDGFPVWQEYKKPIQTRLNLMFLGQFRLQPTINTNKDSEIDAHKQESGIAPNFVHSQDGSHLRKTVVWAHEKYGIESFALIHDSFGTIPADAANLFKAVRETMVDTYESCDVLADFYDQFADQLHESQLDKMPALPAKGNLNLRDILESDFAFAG
# Protocol: as §1, §2, §3
# Conversely, even at 7.5 mM GGAG tetranuc, the control variant provided less than 70% of total RNA with incorporated GGAG.
# [3] = target: T7 RNA polymerase variant G47A/S628W+C-terminal G (S628W), SEQ ID NO: 58 (Escherichia phage T7, UniProt P00573, G47A/S628W); assay: GAG/e6A/m6A cap analog incorporation in IVT reactions, LC-MS % capped RNA (S628W); conditions: 5 mM of each NTP
# Sequence of T7 RNA polymerase variant G47A/S628W+C-terminal G (S628W), SEQ ID NO: 58 (P00573 other isoform, or with tags, fused parts or gaps G47A/S628W): as the sequence (P00573 other isoform, or with tags, fused parts or gaps G47A/D653W) above, with S628W, W653D counted along it
# Protocol: as §1, §2, §3
# [4] = target: T7 RNA polymerase variant G47A/P657W+C-terminal G (P657W), SEQ ID NO: 60 (Escherichia phage T7, UniProt P00573, G47A/P657W); assay: GAG/e6A/m6A cap analog incorporation in IVT reactions, LC-MS % capped RNA (P657W); conditions: 5 mM of each NTP
# Sequence of T7 RNA polymerase variant G47A/P657W+C-terminal G (P657W), SEQ ID NO: 60 (P00573 other isoform, or with tags, fused parts or gaps G47A/P657W): as the sequence (P00573 other isoform, or with tags, fused parts or gaps G47A/D653W) above, with W653D, P657W counted along it
# Protocol: as §1, §2, §3
# [5] = EC50 = concentration for 50% cap incorporation, vs G47A+C-terminal G
# Sequence of T7 RNA polymerase variant G47A/D506W+C-terminal G (D506W), SEQ ID NO: 57 (P00573 other isoform, or with tags, fused parts or gaps G47A/D506W): as the sequence (P00573 other isoform, or with tags, fused parts or gaps G47A/D653W) above, with D506W, W653D counted along it
compound,measurement,setting,value
"CCNc1ncnc2c1ncn2[C@@H]1O[C@H](COP(=O)(O)OP(=O)(O)OP(=O)([O-])OC[C@H]2O[C@@H](n3c[n+](C)c4c(=O)[nH]c(N)nc43)[C@H](O)[C@@H]2O)[C@@H](OP(=O)(O)OC[C@H]2O[C@@H](n3cnc4c(=O)[nH]c(N)nc43)[C@H](O)[C@@H]2O)[C@H]1OC [e6A cap, m^7Gpppe^6A2′OmepG]","effective concentration of e6A cap analog for cap incorporation, relative to control variant (in words)",[1]; FIGS. 5A-5D,lesser effective concentrations
same,"effective concentration of e6A cap analog for cap incorporation, relative to control variant (in words)","[2]; 5 mM of each NTP, FIGS. 5A-5D",lesser effective concentrations
same,"effective concentration of e6A cap analog for cap incorporation, relative to control variant (in words)",[3]; FIGS. 5A-5D,lesser effective concentrations
same,"effective concentration of e6A cap analog for cap incorporation, relative to control variant (in words)",[4]; FIGS. 5A-5D,lesser effective concentrations
"CNc1ncnc2c1ncn2[C@@H]1O[C@H](COP(=O)(O)OP(=O)(O)OP(=O)([O-])OC[C@H]2O[C@@H](n3c[n+](C)c4c(=O)[nH]c(N)nc43)[C@H](O)[C@@H]2O)[C@@H](OP(=O)(O)OC[C@H]2O[C@@H](n3cnc4c(=O)[nH]c(N)nc43)[C@H](O)[C@@H]2O)[C@H]1OC [m6A cap, m^7Gpppm^6A2′OmepG]","effective concentration of m6A cap analog for cap incorporation, relative to control variant (in words)",[1]; FIGS. 6A-6D,lesser effective concentrations
same,"effective concentration of m6A cap analog for cap incorporation, relative to control variant (in words)","[2]; 5 mM of each NTP, FIGS. 6A-6D",lesser effective concentrations
same,"effective concentration of m6A cap analog for cap incorporation, relative to control variant (in words)",[3]; FIGS. 6A-6D,lesser effective concentrations
same,"effective concentration of m6A cap analog for cap incorporation, relative to control variant (in words)",[4]; FIGS. 6A-6D,lesser effective concentrations
CO[C@@H]1[C@H](OP(=O)(O)OC[C@H]2O[C@@H](n3cnc4c(N)ncnc43)[C@H](O)[C@@H]2OP(=O)(O)OC[C@H]2O[C@@H](n3cnc4c(=O)[nH]c(N)nc43)[C@H](O)[C@@H]2O)[C@@H](COP(=O)(O)OP(=O)(O)OP(=O)([O-])OC[C@H]2O[C@@H](n3c[n+](C)c4c(=O)[nH]c(N)nc43)[C@H](O)[C@@H]2O)O[C@H]1n1cnc2c(=O)[nH]c(N)nc21 [GGAG tetranuc],"effective concentration of GGAG tetranuc cap analog for cap incorporation, relative to control variant (in words)","[2]; 7.5 mM of each NTP, FIG. 7",lesser effective concentrations
CO[C@@H]1[C@H](OP(=O)(O)OC[C@H]2O[C@@H](n3cnc4c(=O)[nH]c(N)nc43)[C@H](O)[C@@H]2O)[C@@H](COP(=O)(O)OP(=O)(O)OP(=O)([O-])OC[C@H]2O[C@@H](n3c[n+](C)c4c(=O)[nH]c(N)nc43)[C@H](O)[C@@H]2O)O[C@H]1n1cnc2c(N)ncnc21 [GAG cap],"fold improvement (reduction) in EC50 for GAG cap incorporation, relative to the control variant",[1]; [5],1.28 fold
same,"EC50 for GAG cap incorporation, relative to the control variant (in words)","[2]; 5 mM of each NTP, vs G47A+C-terminal G",significant improvement
same,"fold improvement (reduction) in EC50 for GAG cap incorporation, relative to the control variant","[2]; 7.5 mM of each NTP, FIG. 4E, vs G47A+C-terminal G",12.3 fold
same,"fold improvement (reduction) in EC50 for GAG cap incorporation, relative to the control variant",[3]; [5],1.45 fold
same,"fold improvement (reduction) in EC50 for GAG cap incorporation, relative to the control variant",[4]; [5],2.27 fold
